Earlier results in US7309714B2, “Phenylalanine derivatives as dipeptidyl peptidase inhibitors for the treatment or prevention of diabetes” (Merck & Co., Inc., priority 2003, dated 2007).

How the values were obtained:
DP-IV = biological target: T1, DP-IV (Homo sapiens, UniProt P27487)
T1 construct: GRF is rapidly degraded in plasma to GRF[3-44]; from tissue

cardiac allograft = conditions: rats; survival doubled from day 7 to day 14
hematopoiesis = conditions: mouse, cyclophosphamide-induced neutropenia

T1 sequence (P27487 whole entry): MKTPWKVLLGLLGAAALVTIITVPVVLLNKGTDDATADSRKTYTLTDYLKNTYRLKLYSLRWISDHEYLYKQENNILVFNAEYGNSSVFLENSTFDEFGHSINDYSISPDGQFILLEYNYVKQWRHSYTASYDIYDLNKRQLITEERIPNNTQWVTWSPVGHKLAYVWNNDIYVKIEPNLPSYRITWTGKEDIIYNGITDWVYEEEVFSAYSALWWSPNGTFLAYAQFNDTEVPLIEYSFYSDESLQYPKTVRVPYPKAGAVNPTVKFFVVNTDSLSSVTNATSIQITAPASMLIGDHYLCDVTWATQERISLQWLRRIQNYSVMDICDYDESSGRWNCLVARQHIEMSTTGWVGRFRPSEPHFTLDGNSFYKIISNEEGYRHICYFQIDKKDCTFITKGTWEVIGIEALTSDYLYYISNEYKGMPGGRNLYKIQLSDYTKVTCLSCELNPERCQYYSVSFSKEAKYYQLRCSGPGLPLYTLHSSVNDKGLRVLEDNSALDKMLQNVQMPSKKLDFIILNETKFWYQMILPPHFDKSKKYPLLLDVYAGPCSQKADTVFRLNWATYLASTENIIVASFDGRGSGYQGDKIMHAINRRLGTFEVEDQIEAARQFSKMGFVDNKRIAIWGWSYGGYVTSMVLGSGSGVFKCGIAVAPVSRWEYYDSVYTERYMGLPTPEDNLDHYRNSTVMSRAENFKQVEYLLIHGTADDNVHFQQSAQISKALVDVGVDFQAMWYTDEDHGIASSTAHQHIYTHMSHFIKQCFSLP

## CC[C@H](C)[C@H](N)C(=O)N1CCC[C@H]1C(=O)N[C@H](C(=O)O)[C@@H](C)CC [diprotin A]
DP-IV
  effect on degradation of GRF to GRF[3-44] in plasma: prevented

## CC(C)N1CCC(c2ccccc2)(c2ccccc2)CC1 [Prodipine, Pro-Pro-diphenyl-phosphonate]
Cardiac allograft
  cardiac allograft survival: 14 day

## CC(C)[C@H](N)C(=O)N1CCC[C@H]1B(O)O [Val-Boro-Pro]
hematopoiesis
  effect on hematopoiesis: stimulated hematopoiesis
